This passage reports Activity and IC50 results from ChEMBL document CHEMBL6096728, “Simultaneous Induction of Immunogenic Pyroptosis and PD-L1 Downregulation by One Single Photosensitizer for Synergistic Cancer Photoimmunotherapy” (J Med Chem, 2025).

Active and inactive are the calls of the source. The calls are words filed in the database; no cut-off is given here. Where only a bound is given, the exact number is not on record here.

Assay [1] deals with MDA-MB-231. As to the kind of experiment: Induction of cell death in human MDA-MB-231 cells assessed as increase in red fluorescence at 0.5 uM incubated for 24 hrs followed by light irradiation of 20 mW.cm/2 at 400 to 700nm for 10 mins by Calcein-AM/PI staining based analysis. It counts as functional.
Assay [2] can be described thus: Phototoxicity against mouse 4T1 cells preincubated for 24 hrs followed by light irradiation of 20 mW.cm/2 at 400 to 700nm for 10 mins under hypoxia condition by CCK-8 method. As to conditions: 4T1, light or radiation study. It counts as functional, cell-based.
Assay [3] relates to 4T1. Put plainly: Induction of cell death in mouse 4T1 cells assessed as increase in red fluorescence at 0.5 uM incubated for 24 hrs followed by light irradiation of 20 mW.cm/2 at 400 to 700nm for 10 mins by Calcein-AM/PI staining based analysis. The class given is functional.
In assay [4] the test system is 4T1. Put plainly: Induction of cell death in mouse 4T1 cells assessed as decrease in green fluorescence at 0.5 uM incubated for 24 hrs followed by light irradiation of 20 mW.cm/2 at 400 to 700nm for 10 mins by Calcein-AM/PI staining based analysis. It counts as functional.
Assay [5] relates to MDA-MB-231. As to the kind of experiment: Induction of cell death in human MDA-MB-231 cells assessed as decrease in green fluorescence at 0.5 uM incubated for 24 hrs followed by light irradiation of 20 mW.cm/2 at 400 to 700nm for 10 mins by Calcein-AM/PI staining based analysis. It counts as functional.
Assay [6] can be described thus: Phototoxicity against human MDA-MB-231 cells preincubated for 24 hrs followed by light irradiation of 20 mW.cm/2 at 400 to 700nm for 10 mins under hypoxia condition by CCK-8 method. It counts as functional, cell-based. As to conditions: MDA-MB-231, light or radiation study.

Take `CCN(CC)c1ccc2nc3c4ccccc4c(=O)cc-3oc2c1` [NILE RED]: the outcome in the assay on MDA-MB-231 [1], in the assay with 4T1 [3], with 4T1 [4] and in the assay on MDA-MB-231 [5] was inactive. Further, the IC50 in assay [2] and in assay [6] was over 10 µM throughout.
